Measured values published in patent publication US20200354426A1 (MEDIMMUNE LIMITED, priority 2016, published 2020).
Where two headings read alike, the source gives them in different places. Numbered stars: 1 amine (or outer) side, 2 acyl side, 3 side chain; on linkers, the order of the positions; unused ones are H or OH. Side chains are listed from the residue outwards. Peptide text beside a SMILES is read from it. * marks the point of attachment. γGlu = O=C(O)[C@H](CCC(=O)[*:2])N[*:1]; Palmitoyl = CCCCCCCCCCCCCCCC(=O)*

Assays:
Type in all cases: cell-based
[1] = biological target: T1, Rat GlucR (Rattus norvegicus, UniProt P30082); experiment: cAMP assay in 3.2% rat serum albumin (assay 2); conditions: for Rat GlucR/GLP1R Ratio: […] rat serum albumin, relative potencies vs natural ligands
T1 construct: expressed in transfected cells

[2] = biological target: T2, Human GIPr (Homo sapiens, UniProt P48546); experiment: cAMP activity assay in assay medium (assay 1); conditions: assay medium
T2 construct: expressed in transfected cells
T2 sequence (P48546 22-466): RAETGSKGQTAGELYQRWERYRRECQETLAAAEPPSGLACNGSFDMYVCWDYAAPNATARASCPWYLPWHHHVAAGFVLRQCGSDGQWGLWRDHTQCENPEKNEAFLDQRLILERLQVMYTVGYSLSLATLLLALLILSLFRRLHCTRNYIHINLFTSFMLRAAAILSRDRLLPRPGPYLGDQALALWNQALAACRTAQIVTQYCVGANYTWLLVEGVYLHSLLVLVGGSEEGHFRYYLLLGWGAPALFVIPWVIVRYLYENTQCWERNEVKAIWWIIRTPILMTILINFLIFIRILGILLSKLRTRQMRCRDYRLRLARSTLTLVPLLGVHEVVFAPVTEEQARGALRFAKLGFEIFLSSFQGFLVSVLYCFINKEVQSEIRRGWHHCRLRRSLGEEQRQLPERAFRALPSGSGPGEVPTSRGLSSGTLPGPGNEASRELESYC
Excerpt: (§1) Biological Activity of Peptides in Cell-Based cAMP Activity Assay (Assay 1):
(§2) All sample dilutions were made in duplicate.

[3] = biological target: T3, Human GlucR (Homo sapiens, UniProt P47871); experiment: cAMP activity assay in assay medium (assay 1); conditions: assay medium
T3 construct: expressed in transfected cells
Excerpt: as §1, §2

[4] = biological target: T3, Human GlucR; experiment: cAMP assay in 4.4% human serum albumin (assay 2)
Description: Cryopreserved cell stocks were prepared in 1× cell freezing medium-DMSO serum free (Sigma Aldrich) at 2×10^7/vial and stored at −80° C. […] Peptides were serially diluted in DMSO and then diluted 100 fold into DMEM containing serum albumin at stated final concentration. […] Cells were added to the assay plates and incubated for 30 min at room temperature. Following incubation the assay was stopped and cAMP levels measured using the HTRF® dynamic d2 cAMP assay kit available from CisBio Bioassays, as per the manufacture's guidelines. Plates were read on Perkin Elmer ENVISION® fluorescence plate readers. Human and rat serum albumin were purchased from Sigma Aldrich and mouse serum albumin from Equitech Bio Ltd.
Data was transformed to % Delta F as described in manufacturer's guidelines and analysed by 4-parameter logistic fit to determine EC50 values. […] For instance. […] To compare the balance of activities at the GLP1R and GlucR between different peptides and across different conditions, these can be correlated using the calculation below, where the EC50's are related to those of the natural ligands.

[5] = biological target: Human GLP1R (Homo sapiens, UniProt P43220); experiment: cAMP activity assay in assay medium (assay 1); design: expressed in transfected cells; conditions: assay medium
Excerpt: as §1, §2

T1 sequence (P30082 27-485): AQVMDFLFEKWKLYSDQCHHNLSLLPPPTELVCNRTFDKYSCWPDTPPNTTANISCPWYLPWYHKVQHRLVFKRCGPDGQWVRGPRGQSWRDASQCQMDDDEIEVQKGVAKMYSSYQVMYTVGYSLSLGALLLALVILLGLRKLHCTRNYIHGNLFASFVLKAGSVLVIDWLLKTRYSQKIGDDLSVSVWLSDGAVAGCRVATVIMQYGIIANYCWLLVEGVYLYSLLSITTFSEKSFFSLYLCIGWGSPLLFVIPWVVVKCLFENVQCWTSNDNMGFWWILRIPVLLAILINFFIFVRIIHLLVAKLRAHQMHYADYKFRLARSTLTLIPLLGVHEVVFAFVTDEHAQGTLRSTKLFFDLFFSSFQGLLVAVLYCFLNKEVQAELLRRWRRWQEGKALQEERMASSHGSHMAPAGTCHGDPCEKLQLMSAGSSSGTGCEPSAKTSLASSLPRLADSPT
T3 sequence (P47871 26-477): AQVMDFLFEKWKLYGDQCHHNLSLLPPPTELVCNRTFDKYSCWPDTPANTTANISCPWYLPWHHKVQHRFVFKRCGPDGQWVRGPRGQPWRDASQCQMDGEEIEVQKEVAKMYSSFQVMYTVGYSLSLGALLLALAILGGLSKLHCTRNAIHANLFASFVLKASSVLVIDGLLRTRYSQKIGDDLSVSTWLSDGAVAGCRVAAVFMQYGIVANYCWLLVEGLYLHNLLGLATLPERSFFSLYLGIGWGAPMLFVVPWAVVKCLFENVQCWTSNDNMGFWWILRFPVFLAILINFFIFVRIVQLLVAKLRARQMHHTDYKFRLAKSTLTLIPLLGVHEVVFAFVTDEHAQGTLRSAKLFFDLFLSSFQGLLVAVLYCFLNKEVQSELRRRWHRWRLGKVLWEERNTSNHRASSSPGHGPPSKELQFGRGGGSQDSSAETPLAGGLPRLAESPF
Human GLP1R, sequence (P43220 24-463): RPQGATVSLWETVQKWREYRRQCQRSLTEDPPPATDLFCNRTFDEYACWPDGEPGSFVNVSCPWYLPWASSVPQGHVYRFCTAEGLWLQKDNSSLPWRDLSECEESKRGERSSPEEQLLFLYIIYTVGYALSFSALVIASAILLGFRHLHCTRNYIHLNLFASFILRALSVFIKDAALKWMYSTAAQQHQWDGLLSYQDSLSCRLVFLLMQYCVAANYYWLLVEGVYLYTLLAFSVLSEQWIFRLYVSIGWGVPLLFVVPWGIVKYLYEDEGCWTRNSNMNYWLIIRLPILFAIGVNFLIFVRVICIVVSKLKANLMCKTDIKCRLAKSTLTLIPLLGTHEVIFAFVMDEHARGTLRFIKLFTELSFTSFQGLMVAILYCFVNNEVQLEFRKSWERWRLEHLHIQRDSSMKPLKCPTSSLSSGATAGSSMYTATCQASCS

| Compound | Rat GlucR/GLP1R Ratio [1] | EC50 ([2]; Table 2, C-terminal amide peptides, read-out: Human GIPr EC50) | EC50 ([2]; Table 4, read-out: hGIPR EC50) | EC50 ([3]; Table 2, C-terminal amide peptides, read-out: Human GlucR EC50) | EC50 ([3]; Table 4, read-out: hGlucR EC50) | EC50 [4] | Human GlucR/GLP1R Ratio ([4]; relative potency GlucR / relative potency GLP1R vs natural ligands) | EC50 ([1]; 3.2% rat serum albumin) | EC50 ([5]; Table 2, C-terminal amide peptides, read-out: Human GLP1R EC50) | EC50 ([5]; Table 4, read-out: hGLP1R EC50) |
| --- | --- | --- | --- | --- | --- | --- | --- | --- | --- | --- |
| L-Histidyl-L-seryl-L-glutaminylglycyl-L-threonyl-L-phenylalanyl-L-threonyl-L-seryl-L-alpha-aspartyl-(N6-[N-(1-oxohexadecyl)-L-gamma-gutamyl])L-lysy-L-sery-L-alpha-glutamyl-L-tyrosyl-L-leucyl-L-alpha-aspartyl-L-seryl-L-alpha-glutamyl-L-arginyl-L-alanyl-L-arginyl-L-alpha-L-aspartyl-L-phenylalanyl-L-valyl-L-alanyl-L-tryptophyl-L-leucyl-L-alpha-glutamyl-L-alanylglycylglycine [Peptide G933] | 0.27 |  |  |  |  |  |  |  |  |  |
| CCCCCCCCCCCCCCCC(=O)N[C@@H](CCC(=O)NCCCC[C@H](NC(=O)[C@H](CCCCN)NC(=O)[C@H](CO)NC(=O)[C@H](Cc1ccc(O)cc1)NC(=O)[C@H](CC(=O)O)NC(=O)[C@H](CO)NC(=O)[C@@H](NC(=O)[C@H](Cc1ccccc1)NC(=O)[C@@H](NC(=O)CNC(=O)[C@H](CCC(N)=O)NC(=O)[C@H](CO)NC(=O)[C@@H](N)Cc1c[nH]cn1)[C@@H](C)O)[C@@H](C)O)C(=O)N[C@@H](CC(C)C)C(=O)N[C@@H](CC(=O)O)C(=O)N[C@@H](CO)C(=O)N[C@@H](CCC(=O)O)C(=O)N[C@@H](CCCNC(=N)N)C(=O)N[C@@H](C)C(=O)N[C@@H](CCCNC(=N)N)C(=O)N[C@@H](CC(=O)O)C(=O)N[C@@H](Cc1ccccc1)C(=O)N[C@H](C(=O)N[C@@H](C)C(=O)N[C@@H](Cc1c[nH]c2ccccc12)C(=O)N[C@@H](CC(C)C)C(=O)N[C@H](C(=O)N[C@@H](C)C(=O)NCC(=O)NCC(N)=O)C(C)C)C(C)C)C(=O)O [Peptide G730] (H-HSQGTFTSDYSKK([γGlu-Palmitoyl])LDSERARDFVAWLVAGG-NH2; N-terminus assumed) | 0.06 | 45 nM | 56.6 nM | 0.00623 nM | 0.015 nM | 0.402 nM | 0.122 | 45.1 nM | 0.018 nM | 0.0395 nM |
